The assay has as its system Streptococcus mutans (MT8148R). Put plainly: Antibacterial activity against Streptococcus mutans (colony count after 1 hour contact with sample). It counts as cell-based. The settings on record: final concentration of the sample 1 mg/mL; 37° C. for 1 hour; colonies counted on MS agar medium after 2 days. As to the method:
Streptococcus mutans (MT8148R) was cultured in a brain heart infusion medium (BHI, manufactured by Difco) at 37° C. for 18 hours. After collection of the cells by centrifugation, the precipitate was washed three times with a phosphate buffer solution (PBS, pH 6.8). Then the cells were suspended to give an absorbance of 0.5 at 550 nm. Thus, about 2×10^7 colonies per mL (expressed in colony forming unit: CFU) were formed . Next, an equal amount of a previously prepared sample solution was added to the suspension and the resultant mixture was allowed to stand at 37° C. for 1 hour. 0.1 mL of this liquid mixture or the same mixture seriously 10-fold diluted was sowed on a Mitis salivarius agar medium (MS agar medium, manufactured by Difco). After culturing at 37° C. for 2 days, the colonies thus formed were counted. The antibacterial activity was indicated in the logarithm of CFU of test group/CFU of control lot (i.e., the reducing ratio).
The mixing ratio of EGCG to GCG (manufactured by Sigma) was varied so as to adjust the final concentration of the sample to 1 mg/mL and thus the antibacterial activity was examined. […]

For the compound (−)-epigallocatechin gallate [EGCG], the “Antibacterial activity (logarithm of CFU of test group/CFU of control lot, the reducing ratio)” value is recorded as −3.50. Regarding `O=C(O[C@@H]1Cc2c(O)cc(O)cc2O[C@H]1c1cc(O)c(O)c(O)c1)c1cc(O)c(O)c(O)c1` [GCG, gallocatechin gallate], the “Antibacterial activity (logarithm of CFU of test group/CFU of control lot, the reducing ratio)” value was −3.17.

Values taken from patent US20060134286A1, “Gallocatechin gallate-containing composition” (Suntory Limited, priority 2002, published 2006).
